# Assay results: publication PMC12383317, “Ajuforrestin A Inhibits Tumor Proliferation and Migration by Targeting the STAT3/FAK Signaling Pathways and VEGFR-2” (Biology, 2025)
# Molecular target: T1, VEGFR-2 (Homo sapiens, UniProt P35968)
# T1 construct: gene KDR
# Test: SPR with VEGFR-2 immobilized on sensor chip, compound […]
# Type: binding
# T1 sequence (P35968 20-1356): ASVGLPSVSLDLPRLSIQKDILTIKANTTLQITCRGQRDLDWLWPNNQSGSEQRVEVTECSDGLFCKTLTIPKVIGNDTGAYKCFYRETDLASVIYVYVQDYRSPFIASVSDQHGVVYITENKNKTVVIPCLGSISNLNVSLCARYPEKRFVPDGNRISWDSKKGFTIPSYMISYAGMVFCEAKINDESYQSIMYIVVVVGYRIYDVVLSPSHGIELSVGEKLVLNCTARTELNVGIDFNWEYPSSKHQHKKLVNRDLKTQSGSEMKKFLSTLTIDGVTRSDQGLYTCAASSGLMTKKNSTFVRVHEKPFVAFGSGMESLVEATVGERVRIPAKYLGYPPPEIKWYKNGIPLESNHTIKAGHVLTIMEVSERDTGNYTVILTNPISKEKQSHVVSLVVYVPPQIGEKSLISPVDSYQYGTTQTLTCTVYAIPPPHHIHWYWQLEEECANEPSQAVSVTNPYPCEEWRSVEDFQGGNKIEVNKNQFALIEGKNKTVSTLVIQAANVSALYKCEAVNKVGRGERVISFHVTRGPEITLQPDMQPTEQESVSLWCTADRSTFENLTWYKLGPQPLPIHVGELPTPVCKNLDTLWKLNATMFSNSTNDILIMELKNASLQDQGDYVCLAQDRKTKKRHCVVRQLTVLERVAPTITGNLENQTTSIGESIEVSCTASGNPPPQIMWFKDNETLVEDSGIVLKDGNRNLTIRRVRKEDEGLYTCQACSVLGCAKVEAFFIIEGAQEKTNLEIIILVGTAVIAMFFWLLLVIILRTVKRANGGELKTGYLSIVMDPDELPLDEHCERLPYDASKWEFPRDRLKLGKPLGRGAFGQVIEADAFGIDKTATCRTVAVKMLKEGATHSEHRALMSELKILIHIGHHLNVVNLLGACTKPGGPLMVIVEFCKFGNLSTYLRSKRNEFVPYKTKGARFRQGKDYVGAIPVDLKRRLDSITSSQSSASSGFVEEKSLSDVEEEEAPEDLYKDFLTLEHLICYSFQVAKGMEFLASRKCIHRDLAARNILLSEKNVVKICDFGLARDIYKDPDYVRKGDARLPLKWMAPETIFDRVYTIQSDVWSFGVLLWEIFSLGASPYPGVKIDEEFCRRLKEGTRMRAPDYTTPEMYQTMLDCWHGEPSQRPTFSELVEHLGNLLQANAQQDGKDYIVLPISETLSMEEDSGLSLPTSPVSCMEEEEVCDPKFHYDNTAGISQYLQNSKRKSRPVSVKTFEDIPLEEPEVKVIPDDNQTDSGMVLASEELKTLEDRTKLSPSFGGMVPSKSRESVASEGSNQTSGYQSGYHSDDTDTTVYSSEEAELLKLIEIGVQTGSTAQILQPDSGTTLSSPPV
smiles,measurement,value
CC1=C(C)C2=CC(=O)c3c(c(O)c4occ(C)c4c3O)C2(C)CC1 (stereo not shown) [ajuforrestin A],Kd,45 µM
